Source: ChEMBL document CHEMBL3046533, “Molecular drug design, synthesis and pharmacophore site identification of spiroheterocyclic compounds: Trypanosoma crusi inhibiting studies” (Med Chem Res, 2013)

How the values were obtained:
[1] = Cytotoxicity against Mus musculus BALB/c (mouse) splenocytes assessed as decrease in [3H]-thymidine incorporation after 24 hr by beta-radiation counting analysis; assay type: cell-based, Splenocyte; conditions: read-out: MNCC
Trypanosoma cruzi [2] = test: Antitypanosomal activity against benznidazole-resistant trypomastigote stage of Trypanosoma cruzi Y assessed as parasite growth inhibition after 24 hr by hemacytometric analysis; assay type: functional, organism-based
Trypanosoma cruzi [3] = test: Antitypanosomal activity against benznidazole-resistant epimastigote stage of Trypanosoma cruzi Y assessed as parasite growth inhibition after 11 days by hemacytometric analysis; assay type: functional, organism-based
Trypanosoma cruzi [4] = test: Ratio of benznidazole IC50 to compound IC50 for benznidazole-resistant trypomastigote stage of Trypanosoma cruzi Y; assay type: functional
Trypanosoma cruzi [5] = test: Ratio of nifurtimox IC50 to compound IC50 for benznidazole-resistant trypomastigote stage of Trypanosoma cruzi Y; assay type: functional
[6] = Cytotoxicity against Mus musculus BALB/c (mouse) splenocytes assessed as decrease in [3H]-thymidine incorporation at 1 to 100 ug/mL after 24 hr by beta-radiation counting analysis relative to untreated control; assay type: cell-based; conditions: splenocyte
[7] = Trypanosoma cruzi, Y, 24 h, read-out: IC50
[8] = Trypanosoma cruzi, Y, 264 h, read-out: IC50

SMILES | MNTC at 24 h [1] | IC50 (Trypanosoma cruzi [2]; [7]) [µM] | IC50 (Trypanosoma cruzi [3]; [8]) [µM] | Ratio IC50 (Trypanosoma cruzi [4]) | Ratio IC50 (Trypanosoma cruzi [5]) | Activity [6] | IC50 (Trypanosoma cruzi [2]) | IC50 (Trypanosoma cruzi [3])
Cc1ccc(C2=NOC3(SCc4ccccc4C3=O)C2c2ccc(C)cc2)cc1 (stereo unspecified) | 50 µg/mL | 3.78 | 19.1 | 3 | 3 | – | – | –
COc1ccc(C2C(c3ccc(C)cc3)=NOC23SCc2ccccc2C3=O)cc1 (stereo unspecified) | 5 µg/mL | 19 | 5.5 | – | – | – | – | –
COc1ccc(C2=NOC3(SCc4ccccc4C3=O)C2c2ccc(C)cc2)cc1 (stereo unspecified) | 10 µg/mL | 1.9 | 62.5 | 3 | 3 | – | – | –
COc1ccc(C2=NOC3(SCc4ccccc4C3=O)C2c2ccc(OC)cc2)cc1 (stereo unspecified) | 50 µg/mL | 1.5 | 1.95 | – | – | – | – | –
O=C1c2ccccc2CSC12ON=C(c1ccc(Cl)cc1)C2c1ccc([N+](=O)[O-])cc1 (stereo unspecified) | 5 µg/mL | 22 | 20.5 | – | – | – | – | –
Cc1ccc(C2C(c3ccc([N+](=O)[O-])cc3)=NOC23SCc2ccccc2C3=O)cc1 (stereo unspecified) | 50 µg/mL | 45.4 | 27.9 | – | – | – | – | –
COc1ccc(C2C(c3ccccc3)=NOC23CSc2ccccc2C3=O)cc1 (stereo unspecified) | – | – | – | – | – | Non-toxic | Not Active | Not Active
Cc1ccc(C2=NOC3(CSc4ccccc4C3=O)C2c2ccccc2)cc1 (stereo unspecified) | – | – | – | – | – | Non-toxic | Not Active | Not Active
COc1ccc(C2C(c3ccc(C)cc3)=NOC23CSc2ccccc2C3=O)cc1 (stereo unspecified) | – | – | – | – | – | Non-toxic | Not Active | Not Active
Cc1ccc(C2=NOC3(CSc4ccccc4C3=O)C2c2ccc([N+](=O)[O-])cc2)cc1 (stereo unspecified) | – | – | – | – | – | Non-toxic | Not Active | Not Active
O=C(Cn1ccnc1[N+](=O)[O-])NCc1ccccc1 [BENZNIDAZOLE] | – | – | 6.6 | – | – | – | – | –
CC1CS(=O)(=O)CCN1/N=C/c1ccc([N+](=O)[O-])o1 (stereo unspecified) [NIFURTIMOX] | 3.4 µM | – | – | – | – | – | – | –
